5 molecules from paper PMC11879040, “Advancing systemic toxicity risk assessment: Evaluation of a NAM-based toolbox approach” (Toxicological Sciences, 2024) can be followed below.

The target in test [1] is Sodium-dependent serotonin transporter, SLC6A4 (h) (Homo sapiens, UniProt P31645). The class given is binding. The note with it: control imipramine.
In test [2] the target is Acetylcholinesterase, ACHE (h) (Homo sapiens, UniProt P22303). The class given is biochemical. The note with it: control galanthamine.
The subject of test [3] is Thyroid hormone receptor alpha, THRA (h). The test can be described thus: IPP THRA coactivator recruitment (agonist). Type of test: biochemical, human.
The target in test [4] is cGMP-inhibited 3',5'-cyclic phosphodiesterase A, PDE3A (h) (Homo sapiens, UniProt Q14432). Put plainly: IPP PDE3A enzymatic activity. The class given is biochemical. The settings on record: control milrinone.
Test [5] relates to 63 targets with known safety liabilities. Put plainly: In vitro pharmacological profiling (IPP) panel, screening at 10 or 100 µM and dose response, minimum IC50/AC50. The class given is biochemical. The settings on record: lowest AC50 across IPP panel (systemic targets); cell_type -; read-out: ipp_lowest_ac50_systemic PoD.
Test [6] has as its system Potassium Voltage-Gated Channel Kv non-selective, KCNQ1 (r). The test can be described thus: IPP KCNQ1 binding (antagonist radioligand). Also on record: species or system rat.
For test [7], the target named is T1, Estrogen receptor, ER1 (h) (Homo sapiens, UniProt P03372).
T1 construct: purchased Eurofins Cerep (SafetyScreen44-based IPP panel)
T1 sequence (P03372 1-595): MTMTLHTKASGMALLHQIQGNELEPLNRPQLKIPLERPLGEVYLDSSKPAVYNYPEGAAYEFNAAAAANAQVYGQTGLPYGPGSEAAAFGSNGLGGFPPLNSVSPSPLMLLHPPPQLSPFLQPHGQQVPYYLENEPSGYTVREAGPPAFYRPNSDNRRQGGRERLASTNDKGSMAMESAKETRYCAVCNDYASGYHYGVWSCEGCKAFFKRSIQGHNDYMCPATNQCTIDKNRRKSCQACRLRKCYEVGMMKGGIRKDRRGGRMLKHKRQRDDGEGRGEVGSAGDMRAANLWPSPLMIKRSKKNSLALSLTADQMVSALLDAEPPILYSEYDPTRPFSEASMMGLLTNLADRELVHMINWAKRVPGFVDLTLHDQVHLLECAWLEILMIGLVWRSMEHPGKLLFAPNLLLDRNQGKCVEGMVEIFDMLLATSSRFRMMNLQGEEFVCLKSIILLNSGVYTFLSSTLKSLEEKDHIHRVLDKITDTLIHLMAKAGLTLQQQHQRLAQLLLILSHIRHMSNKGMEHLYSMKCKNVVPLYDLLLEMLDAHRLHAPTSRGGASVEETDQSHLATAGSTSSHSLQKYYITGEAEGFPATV
The test can be described thus: IPP ER1 coactivator recruitment (agonist). The settings on record: estriol. Type of test: biochemical.

The subject of a further test is HepG2 cells. The test can be described thus: Cell stress panel (CSP), 24 h, 8 concentrations, BIFROST global PoD. The class given is cell-based. The method, then:
Compounds were tested using the previously developed cell stress panel ([Hatherell et al. 2020]) and the expanded biomarker panel outlined in Middleton et al. HepG2 cells were treated with all compounds for 24 h across 8 concentrations prior to biomarker analysis. The same plate layout and number of replicates (3 biological and 2 technical) were used as previously for each assay within the panel.

For test [8], the target named is T2, Prostaglandin G/H synthase 2, PTGS2 (h) (Homo sapiens, UniProt P35354).
T2 sequence (P35354 18-604): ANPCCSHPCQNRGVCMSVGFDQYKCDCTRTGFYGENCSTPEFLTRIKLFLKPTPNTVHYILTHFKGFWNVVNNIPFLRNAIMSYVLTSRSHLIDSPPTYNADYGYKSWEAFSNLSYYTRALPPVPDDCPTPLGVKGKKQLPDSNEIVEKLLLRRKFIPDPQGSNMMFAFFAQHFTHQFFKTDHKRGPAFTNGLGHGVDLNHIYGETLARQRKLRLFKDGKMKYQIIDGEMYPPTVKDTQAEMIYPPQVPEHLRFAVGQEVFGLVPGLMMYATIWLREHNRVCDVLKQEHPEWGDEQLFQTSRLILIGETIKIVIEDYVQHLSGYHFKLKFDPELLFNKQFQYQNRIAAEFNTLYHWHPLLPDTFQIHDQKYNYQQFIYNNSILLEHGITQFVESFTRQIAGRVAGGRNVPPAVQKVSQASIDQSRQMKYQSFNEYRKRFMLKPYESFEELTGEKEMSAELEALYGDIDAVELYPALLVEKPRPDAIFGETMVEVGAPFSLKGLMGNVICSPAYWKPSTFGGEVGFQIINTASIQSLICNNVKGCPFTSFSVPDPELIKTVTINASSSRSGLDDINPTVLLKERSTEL
The test can be described thus: IPP PTGS2 enzymatic activity. The settings on record: control NS398. Type of test: biochemical.

Test [9] has as its target T3, Adenosine receptor A2a, ADORA2A (h) (Homo sapiens, UniProt P29274).
T3 construct: purchased Eurofins Cerep (SafetyScreen44-based IPP panel)
Put plainly: IPP ADORA2A binding (agonist radioligand). The note with it: control NECA.

For test [10], the target named is T4, Peroxisome proliferator-activated receptor alpha, PPARA (h) (Homo sapiens, UniProt Q07869).
T4 sequence (Q07869 1-468): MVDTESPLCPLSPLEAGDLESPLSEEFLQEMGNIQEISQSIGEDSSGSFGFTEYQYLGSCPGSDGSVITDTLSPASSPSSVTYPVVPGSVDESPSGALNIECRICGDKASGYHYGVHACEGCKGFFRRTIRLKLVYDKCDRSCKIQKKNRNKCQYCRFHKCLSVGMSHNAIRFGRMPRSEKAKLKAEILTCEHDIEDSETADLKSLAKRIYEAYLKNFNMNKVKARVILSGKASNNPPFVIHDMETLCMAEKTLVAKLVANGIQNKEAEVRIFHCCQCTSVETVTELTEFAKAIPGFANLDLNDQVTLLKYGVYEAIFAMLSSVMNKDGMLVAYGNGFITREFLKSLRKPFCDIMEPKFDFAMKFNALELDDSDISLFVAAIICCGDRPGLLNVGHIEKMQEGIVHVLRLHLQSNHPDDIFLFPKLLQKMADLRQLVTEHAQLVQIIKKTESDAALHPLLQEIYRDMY
The test can be described thus: IPP PPARA coactivator recruitment (agonist). The class given is biochemical. The settings on record: 10 uM, GW 7647 for control.

Like-named read-outs stand apart in the source and are kept apart here.

Sequence of Sodium-dependent serotonin transporter, SLC6A4 (h) (P31645 whole entry): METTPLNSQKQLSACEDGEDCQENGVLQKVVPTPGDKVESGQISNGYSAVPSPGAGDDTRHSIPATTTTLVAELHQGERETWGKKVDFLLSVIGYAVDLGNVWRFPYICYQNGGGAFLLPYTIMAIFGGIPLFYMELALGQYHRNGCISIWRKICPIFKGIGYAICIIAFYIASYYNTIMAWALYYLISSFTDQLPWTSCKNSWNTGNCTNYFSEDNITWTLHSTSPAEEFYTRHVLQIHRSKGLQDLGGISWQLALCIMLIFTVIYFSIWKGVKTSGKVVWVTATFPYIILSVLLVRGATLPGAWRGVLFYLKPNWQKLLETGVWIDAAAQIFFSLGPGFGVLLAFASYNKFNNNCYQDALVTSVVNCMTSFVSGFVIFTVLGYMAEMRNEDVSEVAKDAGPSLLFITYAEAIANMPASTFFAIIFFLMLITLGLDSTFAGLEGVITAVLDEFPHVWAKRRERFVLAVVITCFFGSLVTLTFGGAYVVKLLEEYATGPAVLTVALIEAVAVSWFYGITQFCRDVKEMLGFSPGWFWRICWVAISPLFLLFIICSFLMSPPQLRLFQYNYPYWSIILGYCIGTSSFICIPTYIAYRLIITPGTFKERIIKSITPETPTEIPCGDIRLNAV
Sequence of Acetylcholinesterase, ACHE (h) (P22303 32-614): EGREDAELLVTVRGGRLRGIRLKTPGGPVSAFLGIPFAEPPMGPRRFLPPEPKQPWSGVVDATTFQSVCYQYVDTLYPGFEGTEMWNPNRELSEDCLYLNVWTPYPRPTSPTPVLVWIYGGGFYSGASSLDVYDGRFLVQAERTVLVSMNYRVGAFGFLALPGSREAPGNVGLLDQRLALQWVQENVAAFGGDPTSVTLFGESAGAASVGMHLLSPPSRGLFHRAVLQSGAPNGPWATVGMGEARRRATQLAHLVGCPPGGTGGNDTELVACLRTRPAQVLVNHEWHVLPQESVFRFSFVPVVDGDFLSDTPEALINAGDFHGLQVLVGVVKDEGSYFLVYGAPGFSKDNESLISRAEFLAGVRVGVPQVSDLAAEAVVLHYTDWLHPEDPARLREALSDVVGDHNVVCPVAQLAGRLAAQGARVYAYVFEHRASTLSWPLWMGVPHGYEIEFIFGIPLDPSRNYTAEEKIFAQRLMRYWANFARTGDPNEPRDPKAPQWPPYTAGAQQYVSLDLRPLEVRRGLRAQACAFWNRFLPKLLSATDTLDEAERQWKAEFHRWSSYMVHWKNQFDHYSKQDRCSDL
T3 sequence (P29274 whole entry): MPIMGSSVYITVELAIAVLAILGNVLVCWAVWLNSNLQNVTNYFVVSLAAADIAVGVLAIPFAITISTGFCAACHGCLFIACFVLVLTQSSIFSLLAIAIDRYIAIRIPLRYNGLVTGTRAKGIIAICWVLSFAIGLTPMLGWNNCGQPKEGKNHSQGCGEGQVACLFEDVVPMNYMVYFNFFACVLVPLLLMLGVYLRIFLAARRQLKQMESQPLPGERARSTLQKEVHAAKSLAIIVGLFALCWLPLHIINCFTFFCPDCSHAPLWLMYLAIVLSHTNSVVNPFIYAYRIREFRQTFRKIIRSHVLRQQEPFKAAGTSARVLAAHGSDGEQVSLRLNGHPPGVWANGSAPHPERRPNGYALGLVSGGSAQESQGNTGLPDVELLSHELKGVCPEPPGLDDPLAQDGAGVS
Sequence of cGMP-inhibited 3',5'-cyclic phosphodiesterase A, PDE3A (h) (Q14432 whole entry): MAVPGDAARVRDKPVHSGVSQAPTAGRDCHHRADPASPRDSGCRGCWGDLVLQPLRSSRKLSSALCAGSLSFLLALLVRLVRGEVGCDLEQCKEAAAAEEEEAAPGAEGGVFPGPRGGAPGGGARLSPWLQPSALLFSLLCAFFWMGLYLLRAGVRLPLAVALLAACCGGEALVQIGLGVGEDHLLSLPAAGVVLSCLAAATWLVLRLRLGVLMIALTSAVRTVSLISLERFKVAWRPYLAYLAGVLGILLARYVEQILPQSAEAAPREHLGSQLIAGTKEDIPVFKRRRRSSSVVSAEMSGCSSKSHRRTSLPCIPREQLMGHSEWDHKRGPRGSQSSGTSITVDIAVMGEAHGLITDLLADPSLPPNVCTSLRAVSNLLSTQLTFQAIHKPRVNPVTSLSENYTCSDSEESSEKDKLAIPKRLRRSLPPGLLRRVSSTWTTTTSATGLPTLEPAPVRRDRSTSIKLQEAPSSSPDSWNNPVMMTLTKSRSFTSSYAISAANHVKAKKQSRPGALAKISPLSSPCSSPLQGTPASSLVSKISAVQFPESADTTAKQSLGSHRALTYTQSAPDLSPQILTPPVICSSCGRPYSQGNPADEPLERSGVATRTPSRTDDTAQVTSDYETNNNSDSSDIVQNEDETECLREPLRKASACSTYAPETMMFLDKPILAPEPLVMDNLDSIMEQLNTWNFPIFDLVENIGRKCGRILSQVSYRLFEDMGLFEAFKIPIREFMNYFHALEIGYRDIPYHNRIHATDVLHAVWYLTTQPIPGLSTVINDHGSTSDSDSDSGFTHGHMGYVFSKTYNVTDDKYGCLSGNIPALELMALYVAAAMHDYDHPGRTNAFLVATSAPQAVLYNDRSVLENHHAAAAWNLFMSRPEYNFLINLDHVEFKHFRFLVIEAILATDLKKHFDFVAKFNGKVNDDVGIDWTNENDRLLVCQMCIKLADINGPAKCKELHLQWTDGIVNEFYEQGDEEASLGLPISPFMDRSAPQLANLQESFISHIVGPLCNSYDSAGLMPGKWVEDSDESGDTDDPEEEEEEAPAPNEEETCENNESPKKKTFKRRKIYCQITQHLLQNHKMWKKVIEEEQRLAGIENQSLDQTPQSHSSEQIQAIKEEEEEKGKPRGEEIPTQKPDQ

For the molecule `CCOP(=S)(OCC)Oc1nc(Cl)c(Cl)cc1Cl` [Chlorpyrifos, O,O-Diethyl O-(3,5,6-trichloropyridin-2-yl) phosphorothioate], the Specific binding in test [1] (IPP screening at 10 uM) is -9.1%; in [6] it was 15.4%; in test [9] (IPP screening at 10 uM), 15.6%. Besides, the Enzymatic activity was -10.5% in test [2] (IPP screening at 10 uM), 36.9% in test [4] (IPP screening at 10 uM) and -4.1% in [8] (IPP screening at 10 uM). The “IPP screening %, Coactivator recruitment” value in [3] (10 uM, agonist, T3) is 2.0%; in test [7] (10 uM) it was -1.0%. Also, the AC50 in [5] is 1850 nM. Moreover, the “pod_cell_stress PoD” value in the test with HepG2 cells (HepG2, cell stress panel PoD) was determined as 0.578 µM.

For the molecule `CC(C)(C)c1ccc(CCOc2ncnc3ccccc23)cc1` [Fenazaquin, 4-[2-(4-tert-Butylphenyl)ethoxy]quinazoline], the Specific binding in test [1] (IPP screening at 10 uM) is 4.6%; in test [6] (IPP screening at 10 uM, control α-dendrotoxin) it was -1.6%; in [9] (IPP screening at 10 uM) it was 47.1%. For the same molecule, the Enzymatic activity was -0.7% in test [2] (IPP screening at 10 uM), 32.4% in test [4] (IPP screening at 10 uM) and 0.8% in test [8] (IPP screening at 10 uM). For the same molecule, the “IPP screening %, Coactivator recruitment” value is on record as -1.0% in test [3] (10 uM, agonist, T3); -2.0% in test [7] (10 uM); 1.2% in test [10]. Besides, the AC50 in [5] was 2860 nM. In the test on HepG2 cells, the “Bioactivity Observations: cell stress panel” value was “Mechanism of action is insect-specific. Cell stress panel PoD is extrapolated beyond lowest concentration for leading biomarkers which suggests the concentration range tested was not low enough”. The “pod_cell_stress PoD” value in the test with HepG2 cells (HepG2, cell stress panel PoD) is recorded as 0.0001306 µM.

Consider `CC1(C)O[C@@H]2[C@@H](CO[C@@]3(COS(N)(=O)=O)OC(C)(C)O[C@@H]23)O1` [Topiramate, [(3aS,5aR,8aR,8bS)-2,2,7,7-Tetramethyltetrahydro-2H,3aH,7H-bis[1,3]dioxolo[4,5-b:4',5'-d]pyran-3a-yl]methyl sulfamate (non-preferred name)], for which the Specific binding in [1] (IPP screening at 100 uM) is 3.5%; in test [6] (IPP screening at 100 uM, control α-dendrotoxin) it was -2.7%; in [9] (IPP screening at 100 uM), 0.9%. The Enzymatic activity in test [2] (IPP screening at 100 uM) was -0.1%; in [4] (IPP screening at 100 uM), 12%; in [8] (IPP screening at 100 uM) it was 4.1%. In addition, the “IPP screening %, Coactivator recruitment” value was 0.0% in test [3] (100 uM, agonist, T3, * denotes assay interference (2-Amino-6-chloro-4-nitrophenol, HC Red 3)) and -1.0% in [7] (100 uM, * denotes assay interference (2-Amino-6-chloro-4-nitrophenol, HC Red 3)). In addition, the AC50 in [5] was 160 nM. Further, the “pod_cell_stress PoD” value in the test with HepG2 cells (HepG2, cell stress panel PoD) is 140.54 µM.

As for “(4S,4aR,5S,5aR,6S,12aS)-4-(Dimethylamino)-3,5,6,10,12,12a-hexahydroxy-6-methyl-1,11-dioxo-1,4,4a,5,5a,6,11,12a-octahydrotetracene-2-carboxamide--hydrogen chloride (1/1) [Oxytetracycline hydrochloride]”, the “IPP screening %, Coactivator recruitment” value was 1.0% in test [3] (10 uM, agonist, T3) and -0.7% in [10]. Besides, the Enzymatic activity in test [4] (IPP screening at 10 uM) is on record as 30.0%; in test [8] (IPP screening at 10 uM) it was 14.5%. For the same molecule, the Specific binding is given as -19.0% in test [6] and 7.5% in [9] (IPP screening at 10 uM).

“mixture of 2- and 3-tert-butyl-4-methoxyphenol [Butylated Hydroxyanisole]”: the Specific binding in [1] (IPP screening at 10 uM) came out at 2.8%; in test [6], 4.9%; in [9] (IPP screening at 10 uM) it was 2.8%. Also, the Enzymatic activity in [2] (IPP screening at 10 uM) is 5.9%; in [4] (IPP screening at 10 uM) it was 22.6%; in test [8] (IPP screening at 10 uM), 62.4%. In addition, the “IPP screening %, Coactivator recruitment” value in [3] is reported as 3.0%; in test [10], -0.3%. The “pod_cell_stress PoD” value with HepG2 cells is 32.7666 µM.
